“And” between values parts separate entries of the source, which are not always exact repeats. Identical values can stand only once. Inconclusive results and toxic doses are left out. How the source made its calls: active means survival T/C of 150% or more; inactive means T/C below 125% in these data.
Test system: CD2F1 mice, L1210 leukemia ip, survival T/C
Assay: NCI In Vivo Anticancer Drug Screen. Data for tumor model L1210 Leukemia (intraperitoneal) in CD2F1 (CDF1) mice
Settings: higher = longer survival
In short: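 Vehicle-treated tumor-bearing mice served as controls (C) for compound-treated mice (T). Reported figure is T divided by C.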

[1] = endpoint: mean survival time, dose: 25.0 mg/kg/injection, schedule: Q04DX003 (ip), vehicle: saline with Tween-80
[2] = endpoint: mean survival time, dose: 50.0 mg/kg/injection, schedule: Q04DX003 (ip), vehicle: saline with Tween-80
[3] = endpoint: mean survival time, dose: 100.0 mg/kg/injection, schedule: Q04DX003 (ip), vehicle: saline with Tween-80
[4] = endpoint: mean survival time, dose: 200.0 mg/kg/injection, schedule: Q04DX003 (ip), vehicle: saline with Tween-80
[5] = endpoint: mean survival time, dose: 400.0 mg/kg/injection, schedule: Q04DX003 (ip), vehicle: saline with Tween-80
[6] = endpoint: mean survival time, dose: 100.0 mg/kg/injection, schedule: Q01DX009 (ip), vehicle: saline with Tween-80
[7] = endpoint: mean survival time, dose: 200.0 mg/kg/injection, schedule: Q01DX009 (ip), vehicle: saline with Tween-80
[8] = endpoint: mean survival time, dose: 400.0 mg/kg/injection, schedule: Q01DX009 (ip), vehicle: saline with Tween-80
[9] = endpoint: mean survival time, dose: 100.0 mg/kg/injection, schedule: Q01DX001 (ip), vehicle: saline with Tween-80
[10] = endpoint: mean survival time, dose: 200.0 mg/kg/injection, schedule: Q01DX001 (ip), vehicle: saline with Tween-80
[11] = endpoint: mean survival time, dose: 400.0 mg/kg/injection, schedule: Q01DX001 (ip), vehicle: saline with Tween-80

Measured: T/C

O=S(=O)(F)c1ccccc1
inactive: [1] 95 % of control | [2] 100 % of control | [3] 95 % of control and 97 % of control

CC(C)(C)OC(=O)NC(Cc1cn(Cc2ccccc2)cn1)C(=O)O (stereo not drawn)
inactive: [3] 95 % of control | [4] 101 % of control | [5] 93 % of control

C[C@]12CCCC[C@@H]1CC[C@@H]1[C@@H]2CC[C@]2(C)[C@@H](N(CCO)CCCO)CC[C@@H]12
inactive: endpoint: mean survival time, dose: 100.0 mg/kg/injection, schedule: Q04DX003 (sc), vehicle: steriod suspending solution 98 % of control | endpoint: mean survival time, dose: 200.0 mg/kg/injection, schedule: Q04DX003 (sc), vehicle: steriod suspending solution 91 % of control | endpoint: mean survival time, dose: 400.0 mg/kg/injection, schedule: Q04DX003 (sc), vehicle: steriod suspending solution 107 % of control

CC1(C)C2CC=C(C[P+](c3ccccc3)(c3ccccc3)c3ccccc3)C1C2 (stereo not drawn)
inactive: endpoint: mean survival time, dose: 5.0 mg/kg/injection, schedule: Q01DX009 (ip), vehicle: saline sonified 109 % of control | endpoint: mean survival time, dose: 5.0 mg/kg/injection, schedule: Q04DX003 (ip), vehicle: saline 103 % of control | endpoint: mean survival time, dose: 10.0 mg/kg/injection, schedule: Q04DX003 (ip), vehicle: saline 92 % of control | endpoint: mean survival time, dose: 20.0 mg/kg/injection, schedule: Q04DX003 (ip), vehicle: saline 87 % of control

CCCCCCCCCCCCC(=O)N1CCOCC1
inactive: [6] 105 % of control | [7] 94 % of control | [8] 103 % of control

CC/C1=C/N(C=O)CCc2c([nH]c3ccccc23)C(C(=O)OC)(c2cc3c(cc2OC)N(C)C2C(O)(C(=O)OC)C(OC(C)=O)C4(CC)C=CCN5CCC32C54)CC(=O)C1 (stereo not drawn)
inactive: endpoint: mean survival time, dose: 50.0 mg/kg/injection, schedule: Q01DX001 (ip), vehicle: saline 107 % of control | endpoint: mean survival time, dose: 100.0 mg/kg/injection, schedule: Q01DX001 (ip), vehicle: saline 102 % of control | endpoint: mean survival time, dose: 200.0 mg/kg/injection, schedule: Q01DX001 (ip), vehicle: saline 96 % of control

N#CC1C(=O)NC(O)(c2ccccc2)C1c1ccccc1 (stereo not drawn)
inactive: [1] 105 % of control | [2] 105 % of control | [3] 97 % of control and 105 % of control

Nc1nc(=O)n(CCCOc2ccccc2NC(=O)c2cccc(S(=O)(=O)F)c2)cc1-c1ccc(Cl)c(Cl)c1
inactive: [9] 91 % of control | [10] 95 % of control | [11] 98 % of control

CCC(=O)n1nc(-c2ccccc2)c2ccccc21
inactive: endpoint: mean survival time, dose: 25.0 mg/kg/injection, schedule: Q04DX002 (ip), vehicle: saline with Tween-80 100 % of control | endpoint: mean survival time, dose: 50.0 mg/kg/injection, schedule: Q04DX002 (ip), vehicle: saline with Tween-80 88 % of control | endpoint: mean survival time, dose: 100.0 mg/kg/injection, schedule: Q04DX002 (ip), vehicle: saline with Tween-80 96 % of control | endpoint: mean survival time, dose: 200.0 mg/kg/injection, schedule: Q04DX002 (ip), vehicle: saline with Tween-80 103 % of control

O=[N+]([O-])c1cc(S(=O)(=O)c2ccc(N3CCCC3)c([N+](=O)[O-])c2)ccc1N1CCCC1
inactive: [6] 102 % of control | [7] 95 % of control | [8] 104 % of control

CNC(=S)SC1=NS(=O)(=O)c2ccccc2N1
inactive: endpoint: median survival time, dose: 25.0 mg/kg/injection, schedule: Q01DX005 (ip), vehicle: Klucel (hydroxypropylcellulose) (HPC) 106 % of control | endpoint: median survival time, dose: 50.0 mg/kg/injection, schedule: Q01DX005 (ip), vehicle: Klucel (hydroxypropylcellulose) (HPC) 101 % of control | endpoint: median survival time, dose: 100.0 mg/kg/injection, schedule: Q01DX005 (ip), vehicle: Klucel (hydroxypropylcellulose) (HPC) 108 % of control | endpoint: median survival time, dose: 144.0 mg/kg/injection, schedule: Q01DX005 (ip), vehicle: Klucel (hydroxypropylcellulose) (HPC) 113 % of control | endpoint: median survival time, dose: 200.0 mg/kg/injection, schedule: Q01DX005 (ip), vehicle: Klucel (hydroxypropylcellulose) (HPC) 118 % of control

C=CC(NC(=O)CN)C(=O)O (stereo not drawn)
inactive: [9] 115 % of control | endpoint: mean survival time, dose: 100.0 mg/kg/injection, schedule: Q04DX002 (ip), vehicle: saline 107 % of control | [10] 105 % of control | endpoint: mean survival time, dose: 200.0 mg/kg/injection, schedule: Q04DX002 (ip), vehicle: saline 93 % of control | [11] 114 % of control | endpoint: mean survival time, dose: 400.0 mg/kg/injection, schedule: Q04DX002 (ip), vehicle: saline 110 % of control

O=C[N]([Hg][Cl])c1ccccc1
inactive: endpoint: mean survival time, dose: 6.25 mg/kg/injection, schedule: Q01DX009 (ip), vehicle: saline with Tween-80 86 % of control

Nc1nc(N)c2nc(CNc3ccc(C(=O)NCCCC(=O)O)cc3)cnc2n1 (tested in a mixture with another compound)
inactive: endpoint: mean survival time, dose: 1.0 mg/kg/injection, schedule: Q01DX009 (ip), vehicle: Klucel (hydroxypropylcellulose) (HPC) 97 % of control | endpoint: mean survival time, dose: 5.0 mg/kg/injection, schedule: Q01DX009 (ip), vehicle: Klucel (hydroxypropylcellulose) (HPC) 102 % of control | endpoint: mean survival time, dose: 10.0 mg/kg/injection, schedule: Q01DX009 (ip), vehicle: Klucel (hydroxypropylcellulose) (HPC) 108 % of control | endpoint: mean survival time, dose: 20.0 mg/kg/injection, schedule: Q01DX009 (ip), vehicle: Klucel (hydroxypropylcellulose) (HPC) 102 % of control

O=C1CSC(=S)N1/N=C/c1cc2c(cc1[N+](=O)[O-])OCO2
inactive: endpoint: mean survival time, dose: 75.0 mg/kg/injection, schedule: Q01DX001 (ip), vehicle: other 102 % of control | endpoint: mean survival time, dose: 300.0 mg/kg/injection, schedule: Q01DX001 (ip), vehicle: other 90 % of control

Oc1ccccc1/C=N/NC(=S)NC1CC2C=CC1C2 (stereo not drawn)
inactive: endpoint: mean survival time, dose: 12.5 mg/kg/injection, schedule: Q01DX009 (ip), vehicle: olive oil, sesame oil, peanut oil 98 % of control | endpoint: mean survival time, dose: 25.0 mg/kg/injection, schedule: Q01DX009 (ip), vehicle: olive oil, sesame oil, peanut oil 97 % of control | endpoint: mean survival time, dose: 50.0 mg/kg/injection, schedule: Q01DX009 (ip), vehicle: olive oil, sesame oil, peanut oil 98 % of control | endpoint: mean survival time, dose: 100.0 mg/kg/injection, schedule: Q01DX009 (ip), vehicle: olive oil, sesame oil, peanut oil 94 % of control | endpoint: mean survival time, dose: 200.0 mg/kg/injection, schedule: Q01DX009 (ip), vehicle: olive oil, sesame oil, peanut oil 98 % of control | endpoint: mean survival time, dose: 400.0 mg/kg/injection, schedule: Q01DX009 (ip), vehicle: olive oil, sesame oil, peanut oil 100 % of control

c1ccc(C(c2ccccc2)C(c2ccccc2)c2ccccc2)cc1
inactive: endpoint: mean survival time, dose: 18.7 mg/kg/injection, schedule: Q01DX009 (ip), vehicle: saline with Tween-80 89 % of control | endpoint: mean survival time, dose: 37.5 mg/kg/injection, schedule: Q01DX009 (ip), vehicle: saline with Tween-80 89 % of control

CC(=O)OC(c1ccccc1)C(Cl)(Cl)Cl (stereo not drawn)
inactive: [3] 100 % of control | [4] 105 % of control | [5] 105 % of control

O=C(OCC1OCOC1C1OCOC1COC(=O)c1ccccc1)c1ccccc1 (stereo not drawn)
inactive: endpoint: mean survival time, dose: 100.0 mg/kg/injection, schedule: Q04DX003 (ip), vehicle: Klucel (hydroxypropylcellulose) (HPC) 102 % of control | endpoint: mean survival time, dose: 200.0 mg/kg/injection, schedule: Q04DX003 (ip), vehicle: Klucel (hydroxypropylcellulose) (HPC) 97 % of control | endpoint: mean survival time, dose: 400.0 mg/kg/injection, schedule: Q04DX003 (ip), vehicle: Klucel (hydroxypropylcellulose) (HPC) 91 % of control

CC(Br)C(=O)NC(Cc1ccccc1)C(=O)O (stereo not drawn)
inactive: [6] 101 % of control | [7] 97 % of control | [8] 97 % of control

CO[C@@H](C=O)O[C@@H](C=O)CO
inactive: endpoint: mean survival time, dose: 70.0 mg/kg/injection, schedule: Q01DX001 (ip), vehicle: saline 121 % of control | endpoint: mean survival time, dose: 140.0 mg/kg/injection, schedule: Q01DX001 (ip), vehicle: saline 121 % of control

CSc1nc(NC2OC(CO)C(O)C(O)C2O)c(C(C)=O)c(=O)n1C (stereo not drawn)
inactive: endpoint: median survival time, dose: 12.5 mg/kg/injection, schedule: Q01DX005 (ip), vehicle: saline with Tween-80 98 % of control | endpoint: median survival time, dose: 25.0 mg/kg/injection, schedule: Q01DX005 (ip), vehicle: saline with Tween-80 98 % of control | endpoint: median survival time, dose: 50.0 mg/kg/injection, schedule: Q01DX005 (ip), vehicle: saline with Tween-80 97 % of control | endpoint: median survival time, dose: 100.0 mg/kg/injection, schedule: Q01DX005 (ip), vehicle: saline with Tween-80 100 % of control | endpoint: median survival time, dose: 200.0 mg/kg/injection, schedule: Q01DX005 (ip), vehicle: saline with Tween-80 88 % of control

Cc1cn(C2CC(O)C(CO)O2)c(=O)nc1NC1CCCCCCCCCCC1 (stereo not drawn)
inactive: endpoint: median survival time, dose: 12.5 mg/kg/injection, schedule: Q01DX005 (ip), vehicle: distilled water + Tween-80 103 % of control | endpoint: median survival time, dose: 25.0 mg/kg/injection, schedule: Q01DX005 (ip), vehicle: distilled water + Tween-80 102 % of control | endpoint: median survival time, dose: 50.0 mg/kg/injection, schedule: Q01DX005 (ip), vehicle: distilled water + Tween-80 96 % of control | endpoint: median survival time, dose: 100.0 mg/kg/injection, schedule: Q01DX005 (ip), vehicle: distilled water + Tween-80 89 % of control
